Assay: Distribution of Perfluoro-compound in Organs (gas chromatography)
Format: in vivo, Wister-strain male rats
Conditions: 4 g/kg, tail vein; for Residual Rate of perfluorobicyclo compound: 3 Months after administration
Procedure: Using Wister-strain male rats weighing 120-130 g, the emulsion prepared in Example 1 was administered into the tail vein [at 4 g/kg as perfluoro-4-methyloctahydroquinolidine], and for a period of 3 months after the administration, the content of said compound in the liver, spleen and fat tissues due to uptake were measured by means of gas chromatography.

FC(F)(F)C1(F)N2C(F)(F)C(F)(F)C(F)(F)C(F)(F)C2(F)C(F)(F)C(F)(F)C1(F)F (centres unmarked) [perfluoro-4-methyloctahydroquinolidine]
adverse influence on the liver or spleen organ (3 months): no evidence of adverse influence on the liver or spleen organ
uptake by the reticulo-endothelial organ and disappearance (rat): taken up in greater amounts by the reticulo-endothelial organ shortly after the administration, but soon disappeared rapidly
Residual Rate of perfluorobicyclo compound (Liver): 0.30%
Residual Rate of perfluorobicyclo compound (Spleen): 0.09%
half-life (in vivo, iv, 4000 mg/kg, rat): 176 h

From patent US4425347A, “Perfluorobicyclo compound emulsion preparation” (priority 1982, dated 1984)
